Measured values: patent EP2727627B1, “Oral and dental care and cleaning agents with Tocopherol acetate” (priority 2012, dated 2014)

Key:
[1] = system: Gingiva Fibroblasten; assay: WST-1 vitality test (metabolic activity); assay type: cell-based; conditions: for Vitalität [%] Mittelwert: 24 h incubation, untreated control = 100 %, mean of 6
From the text: Als Maß für die Vitalität kann die metabolische Aktivität von Gingiva Fibroblasten nach Inkubation mit Tocopherylacetat gemessen werden. Das chromogene Tetrazoliumsalz WST-1 wird durch stoffwechselaktive Succinatdehydrogenasen lebender Zellen reduktiv aufgespalten, wobei ein wasserlösliches Formazansalz entsteht. Durch UV/VIS-spektroskopische Vermessung der Absorptionsintensität kann die Konzentration der intermediär gebildeten Formazansalze bestimmt werden, welche in Korrelation zur Aktivität der Succinatdehydrogenase steht.
(§1) Der WST-Vitalitätstest wurde in einer 96-Well Mikrotiterplatte in 6-fach Bestimmung durchgeführt. Dafür wurde pro Well eine definierte Zellzahl von Gingiva Fibroplasten in einem Volumen von 50 µl (microliter) ausgesät. Anschließend wurde Tocopherylacetat in absteigenden Konzentrationen dazugegeben. Nach 24 Stunden Inkubation wurden 10 µl des in Medium verdünnten Tetrazolium-Salzes WST-1 zu jedem Ansatz pipettiert. Es folgte eine dreistündige Inkubation bei 37°C und 5 % Kohlenstoffdioxid, bevor die Absorption bei einer Wellenlänge von 450 nm (Referenzwellenlänge 650 nm) in einem Spektrometer (ELISA-Reader) gemessen wurde. Die Werte der unbehandelten Kontrolle wurden gleich 100 % gesetzt und die Werte der behandelten Proben darauf bezogen.
Für jede Tocopherylacetat-Konzentration wurde eine 6-fach Bestimmung durchgeführt, aus den 6 Messwerten wurde jeweils der Mittelwert gebildet.
as §1, with “37 °C” for “37°C”

[2] = system: Gingiva Fibroblasten; assay: ATP determination with ATPLite-M assay (cell energy content); assay type: cell-based
From the text: ATP (Adenosintriphosphat) ist die universelle Speicherform für chemische Energie in Zellen. Die ATP-Bestimmung erfolgt mit Hilfe des ATPLiteTM-M Assays (Packard). Das Testprinzip dieses Assays beruht darauf, dass die Luciferase von Photinus pyralis eine Reaktion katalysiert, bei der in Gegenwart von ATP D-Luciferin in Oxyluciferin umgewandelt wird. Bei dieser Reaktion wird grünes Licht emittiert, das mit einem Luminometer gemessen werden kann. Das emittierte Biolumineszenzlicht ist proportional zur Menge des vorhandenen ATP. Zur Bestimmung der ATP-Aktivität in Gingiva Fibroblasten werden diese in geeigneter Weise unter Erhalt ihrer spezifischen Eigenschaften vorkultiviert (DE10162814) und in eine 96well-Zellkulturschale überführt. Die Behandlung mit dem Substanzgemisch erfolgte über 24 Stunden gegen eine unbehandelte Kontrolle. Anschließend wurden die Zellen mit jeweils 50 µl/Kavität eines im Testkit enthaltenen Lysepuffer für 5 min auf einem Schüttler lysiert. Danach wurden die Zellen für weitere 5 min mit jeweils 50 µl/Kavität mit der mitgelieferten Substratlösung auf dem Schüttler inkubiert und anschließend das Reaktionsgemisch in eine schwarze Mikrotiterplatte überführt. Nach einer Inkubationszeit von 10 min in der Dunkelheit erfolgte die Messung. Tabelle 2: Einfluss von Tocopherylacetat auf den Zellenergieinhalt

[3] = Fibroblast, 24 h, read-out: Vitalität [%] Mittelwert
[4] = low concentrations, Gingiva-Zellen, result in words

## CC(=O)Oc1c(C)c(C)c2c(c1C)CCC(C)(CCCC(C)CCCC(C)CCCC(C)C)O2 (stereo not shown) [Tocopherylacetat]
[1]; [3]
  viability at 0.0005 %: 133%
  viability at 0.001 %: 141%
  viability at 0.005 %: 138%
  viability at 0.01 %: 150%
[1]; Konz. 0,01 Gew.-%
  Vitalität [%] Mittelwert: 150,5%
[1]; Konz. 0,0005 Gew.-%
  Vitalität [%] Mittelwert: 132,9%
[1]; Konz. 0,001 Gew.-%
  Vitalität [%] Mittelwert: 141,4%
[1]; Konz. 0,005 Gew.-%
  Vitalität [%] Mittelwert: 137,7%
[1]; [4]
  Vitalität: signifikanten Steigerung der Vitalität
[2]; Fibroblast, Konz. 0,01 Gew.-%, 24 h treatment, versus untreated control (100,0), read-out: ATP-Gehalt [%] Mittelwert
  activity at 0.01 %: 128%
[2]; Fibroblast, Konz. 0,0025 Gew.-%, 24 h treatment, versus untreated control (100,0), read-out: ATP-Gehalt [%] Mittelwert
  activity at 0.0025 %: 125%
[2]; Fibroblast, Konz. 0,005 Gew.-%, 24 h treatment, versus untreated control (100,0), read-out: ATP-Gehalt [%] Mittelwert
  activity at 0.005 %: 139%
[2]; [4]
  ATP-Gehalt: signifikanten Steigerung des ATP-Gehaltes
